# Assay: method code TLC index, from DOI: 10.1016/0223-5234(96)88245-6
# Conditions: pH 7.4
row,logD,Structure (SMILES)
1,1.6,CCOC(=O)C1=C(C)NC(C)=C(C(=O)OCC)C1c1cccc([N+](=O)[O-])c1
2,3.08,COC(=O)C1=C(C)NC(C)=C(C(=O)OCCOc2ccccc2)C1c1cc(F)cc(F)c1 (stereo not drawn)
3,1.66,CCOC(=O)C1=C(C)NC(C)=C(C(=O)OCC)C1c1ccc(F)cc1
4,0.82,COC(=O)C1=C(C)NC(C)=C(C(=O)OC)C1c1ccc(F)cc1
5,1.46,CCOC(=O)C1=C(C)NC(C)=C(C(=O)OC)C1c1cc(F)cc(F)c1 (stereo not drawn)
6,2.09,CCOC(=O)C1=C(C)NC(C)=C(C(=O)OCC)C1c1cc(F)cc(F)c1
7,1.48,COC(=O)C1=C(C)NC(C)=C(C(=O)OC)C1c1ccc(F)c(Br)c1
8,1.15,COC(=O)C1=C(C)NC(C)=C(C(=O)OC)C1c1cc(F)cc(F)c1

# Source: the SangsterLogP compilation
